Legend:
[1] = biological target: Serine/threonine-protein kinase ULK2 (Homo sapiens) (UniProt Q8IYT8); conditions: Compound concentration 1000.0 nM
[2] = biological target: Histamine H2 receptor (Homo sapiens) (UniProt P25021); conditions: Compound concentration 10.0 uM
[3] = biological target: Rho-associated protein kinase 2 (Homo sapiens) (UniProt O75116); conditions: Compound concentration 1000.0 nM
[4] = biological target: Serine/threonine-protein kinase PAK 1 (Homo sapiens) (UniProt Q13153); conditions: Compound concentration 1000.0 nM
Serine/threonine-protein kinase PAK 1 (Homo sapiens), sequence (Q13153 whole entry): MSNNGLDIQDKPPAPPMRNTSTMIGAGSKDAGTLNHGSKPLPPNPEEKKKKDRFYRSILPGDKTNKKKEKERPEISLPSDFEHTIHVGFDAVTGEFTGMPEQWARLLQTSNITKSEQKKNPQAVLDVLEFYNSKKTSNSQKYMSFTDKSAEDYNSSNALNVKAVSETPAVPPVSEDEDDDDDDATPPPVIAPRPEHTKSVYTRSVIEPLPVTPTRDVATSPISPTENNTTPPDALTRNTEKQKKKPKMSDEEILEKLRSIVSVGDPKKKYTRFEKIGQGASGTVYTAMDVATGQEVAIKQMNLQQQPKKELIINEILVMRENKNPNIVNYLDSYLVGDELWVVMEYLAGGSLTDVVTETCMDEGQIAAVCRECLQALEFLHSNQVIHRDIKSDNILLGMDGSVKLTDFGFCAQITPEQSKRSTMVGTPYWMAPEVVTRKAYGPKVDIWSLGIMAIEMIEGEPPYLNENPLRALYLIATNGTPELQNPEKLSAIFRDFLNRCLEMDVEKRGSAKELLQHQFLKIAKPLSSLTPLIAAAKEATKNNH

[5] = biological target: Serine/threonine-protein kinase WNK1 (Homo sapiens) (UniProt Q9H4A3); conditions: Compound concentration 1000.0 nM
[6] = biological target: Phosphatidylinositol 3-kinase catalytic subunit type 3 (Homo sapiens) (UniProt Q8NEB9); conditions: Compound concentration 1000.0 nM
[7] = biological target: Platelet-derived growth factor receptor alpha (Homo sapiens) (UniProt P16234); conditions: Compound concentration 1000.0 nM
[8] = biological target: Mitogen-activated protein kinase kinase kinase 9 (Homo sapiens) (UniProt P80192); conditions: Compound concentration 1000.0 nM
[9] = test system: Tyrosine-protein kinase ABL1 (Homo sapiens), P00519 [E255K]; conditions: Compound concentration 1000.0 nM
[10] = biological target: Sigma intracellular receptor 2 (Homo sapiens) (UniProt Q5BJF2); conditions: Compound concentration 10.0 uM
Sigma intracellular receptor 2 (Homo sapiens), sequence (Q5BJF2 whole entry): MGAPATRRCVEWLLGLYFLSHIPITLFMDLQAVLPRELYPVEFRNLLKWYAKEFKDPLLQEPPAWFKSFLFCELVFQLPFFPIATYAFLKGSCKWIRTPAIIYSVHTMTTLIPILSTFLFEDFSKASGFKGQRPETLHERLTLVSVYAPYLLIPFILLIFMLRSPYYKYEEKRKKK

[11] = biological target: Ephrin type-A receptor 1 (Homo sapiens) (UniProt P21709); conditions: Compound concentration 1000.0 nM
[12] = biological target: Inhibitor of nuclear factor kappa-B kinase subunit epsilon (Homo sapiens) (UniProt Q14164); conditions: Compound concentration 1000.0 nM
[13] = biological target: Receptor-interacting serine/threonine-protein kinase 1 (Homo sapiens) (UniProt Q13546); conditions: Compound concentration 1000.0 nM
[14] = biological target: Cytoplasmic tyrosine-protein kinase BMX (Homo sapiens) (UniProt P51813); conditions: Compound concentration 1000.0 nM
[15] = biological target: Glycogen synthase kinase-3 alpha (Homo sapiens) (UniProt P49840); conditions: Compound concentration 1000.0 nM
[16] = biological target: Mitogen-activated protein kinase 10 (Homo sapiens) (UniProt P53779); conditions: Compound concentration 1000.0 nM
[17] = biological target: Tyrosine-protein kinase SYK (Homo sapiens) (UniProt P43405); conditions: Compound concentration 1000.0 nM
[18] = biological target: Ribosomal protein S6 kinase alpha-5 (Homo sapiens) (UniProt O75582); conditions: Compound concentration 1000.0 nM
Ribosomal protein S6 kinase alpha-5 (Homo sapiens), sequence (O75582 whole entry, looked up): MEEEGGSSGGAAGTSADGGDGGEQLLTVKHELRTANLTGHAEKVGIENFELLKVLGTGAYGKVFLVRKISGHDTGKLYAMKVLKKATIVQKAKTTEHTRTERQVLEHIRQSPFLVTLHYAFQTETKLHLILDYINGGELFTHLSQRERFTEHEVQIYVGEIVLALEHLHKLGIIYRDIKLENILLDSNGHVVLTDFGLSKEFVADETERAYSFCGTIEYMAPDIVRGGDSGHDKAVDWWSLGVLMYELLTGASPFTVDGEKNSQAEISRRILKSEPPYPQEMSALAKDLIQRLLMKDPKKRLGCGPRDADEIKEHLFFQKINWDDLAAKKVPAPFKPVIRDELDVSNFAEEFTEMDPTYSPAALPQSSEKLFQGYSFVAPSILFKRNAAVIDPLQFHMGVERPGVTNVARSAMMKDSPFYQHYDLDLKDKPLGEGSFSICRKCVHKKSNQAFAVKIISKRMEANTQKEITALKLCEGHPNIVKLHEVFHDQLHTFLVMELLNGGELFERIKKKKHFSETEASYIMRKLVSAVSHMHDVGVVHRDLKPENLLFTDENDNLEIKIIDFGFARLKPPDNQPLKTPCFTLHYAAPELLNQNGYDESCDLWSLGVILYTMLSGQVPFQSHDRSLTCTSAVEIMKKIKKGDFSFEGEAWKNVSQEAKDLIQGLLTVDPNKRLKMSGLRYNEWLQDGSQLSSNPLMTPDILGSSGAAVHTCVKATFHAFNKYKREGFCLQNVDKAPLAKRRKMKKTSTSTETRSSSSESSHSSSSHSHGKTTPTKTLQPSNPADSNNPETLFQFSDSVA

[19] = test system: Tyrosine-protein kinase ABL1 (Homo sapiens), P00519 [Y253F]; conditions: Compound concentration 1000.0 nM
[20] = biological target: Mitogen-activated protein kinase kinase kinase 20 (Homo sapiens) (UniProt Q9NYL2); conditions: Compound concentration 1000.0 nM
[21] = biological target: Casein kinase I isoform gamma-1 (Homo sapiens) (UniProt Q9HCP0); conditions: Compound concentration 1000.0 nM
Casein kinase I isoform gamma-1 (Homo sapiens), sequence (Q9HCP0 whole entry, looked up, canonical isoform): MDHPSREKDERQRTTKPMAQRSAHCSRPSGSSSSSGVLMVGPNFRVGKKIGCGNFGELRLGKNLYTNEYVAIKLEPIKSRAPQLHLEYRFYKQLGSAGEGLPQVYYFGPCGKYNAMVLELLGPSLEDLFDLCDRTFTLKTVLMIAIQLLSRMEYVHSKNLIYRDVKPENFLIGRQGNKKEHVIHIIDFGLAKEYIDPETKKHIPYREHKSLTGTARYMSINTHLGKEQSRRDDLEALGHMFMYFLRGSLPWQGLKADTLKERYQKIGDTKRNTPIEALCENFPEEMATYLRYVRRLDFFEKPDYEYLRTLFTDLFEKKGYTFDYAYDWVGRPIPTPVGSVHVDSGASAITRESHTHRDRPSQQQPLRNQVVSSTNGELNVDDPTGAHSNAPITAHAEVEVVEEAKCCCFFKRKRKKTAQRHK

[22] = biological target: Beta-3 adrenergic receptor (Homo sapiens) (UniProt P13945); conditions: Compound concentration 10.0 uM
[23] = biological target: G protein-coupled receptor kinase 4 (Homo sapiens) (UniProt P32298); conditions: Compound concentration 1000.0 nM
[24] = biological target: Serine/threonine-protein kinase PLK2 (Homo sapiens) (UniProt Q9NYY3); conditions: Compound concentration 1000.0 nM
[25] = test system: Epidermal growth factor receptor (Homo sapiens), P00533 [T790M]; conditions: Compound concentration 1000.0 nM
[26] = biological target: Angiopoietin-1 receptor (Homo sapiens) (UniProt Q02763); conditions: Compound concentration 1000.0 nM
[27] = biological target: Mitogen-activated protein kinase kinase kinase 15 (Homo sapiens) (UniProt Q6ZN16); conditions: Compound concentration 1000.0 nM
[28] = biological target: Serine/threonine-protein kinase MRCK gamma (Homo sapiens) (UniProt Q6DT37); conditions: Compound concentration 1000.0 nM
[29] = biological target: Uncharacterized serine/threonine-protein kinase SBK3 (Homo sapiens) (UniProt P0C264); conditions: Compound concentration 1000.0 nM
Uncharacterized serine/threonine-protein kinase SBK3 (Homo sapiens), sequence (P0C264 whole entry): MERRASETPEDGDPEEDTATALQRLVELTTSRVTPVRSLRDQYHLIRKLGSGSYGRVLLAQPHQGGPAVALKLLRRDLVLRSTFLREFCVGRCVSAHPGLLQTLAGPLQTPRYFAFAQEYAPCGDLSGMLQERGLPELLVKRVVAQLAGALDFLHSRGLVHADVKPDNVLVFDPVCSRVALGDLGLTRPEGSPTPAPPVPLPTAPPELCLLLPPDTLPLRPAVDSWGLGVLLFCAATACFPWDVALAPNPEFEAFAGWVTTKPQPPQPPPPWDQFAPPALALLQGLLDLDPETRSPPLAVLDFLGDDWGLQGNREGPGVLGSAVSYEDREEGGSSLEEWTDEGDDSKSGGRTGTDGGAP

[30] = biological target: Ephrin type-A receptor 4 (Homo sapiens) (UniProt P54764); conditions: Compound concentration 1000.0 nM
Ephrin type-A receptor 4 (Homo sapiens), sequence (P54764 whole entry): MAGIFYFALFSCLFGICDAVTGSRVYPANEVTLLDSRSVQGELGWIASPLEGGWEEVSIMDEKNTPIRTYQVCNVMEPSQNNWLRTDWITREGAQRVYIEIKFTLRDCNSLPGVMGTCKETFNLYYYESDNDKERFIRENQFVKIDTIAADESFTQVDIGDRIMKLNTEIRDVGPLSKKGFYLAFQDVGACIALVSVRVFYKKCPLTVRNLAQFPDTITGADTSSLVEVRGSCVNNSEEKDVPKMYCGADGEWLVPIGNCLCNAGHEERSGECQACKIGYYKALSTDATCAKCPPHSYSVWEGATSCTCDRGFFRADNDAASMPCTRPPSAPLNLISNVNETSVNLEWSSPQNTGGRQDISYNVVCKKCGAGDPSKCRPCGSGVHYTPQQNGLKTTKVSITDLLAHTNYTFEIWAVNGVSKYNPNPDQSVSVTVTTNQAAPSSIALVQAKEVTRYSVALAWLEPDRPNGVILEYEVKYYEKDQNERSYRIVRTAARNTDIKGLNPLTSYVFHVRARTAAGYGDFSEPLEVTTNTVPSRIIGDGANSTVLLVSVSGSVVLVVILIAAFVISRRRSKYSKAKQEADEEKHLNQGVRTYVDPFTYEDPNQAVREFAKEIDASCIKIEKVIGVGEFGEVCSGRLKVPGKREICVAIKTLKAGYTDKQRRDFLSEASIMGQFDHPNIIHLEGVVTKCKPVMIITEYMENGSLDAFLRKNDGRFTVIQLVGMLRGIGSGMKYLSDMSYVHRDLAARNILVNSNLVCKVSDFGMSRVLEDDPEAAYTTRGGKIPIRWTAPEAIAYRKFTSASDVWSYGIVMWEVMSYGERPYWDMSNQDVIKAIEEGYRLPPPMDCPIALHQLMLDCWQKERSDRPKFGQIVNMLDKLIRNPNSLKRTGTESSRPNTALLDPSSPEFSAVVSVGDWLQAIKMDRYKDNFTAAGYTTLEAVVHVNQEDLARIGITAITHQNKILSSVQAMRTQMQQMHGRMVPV

[31] = biological target: Protein-tyrosine kinase 6 (Homo sapiens) (UniProt Q13882); conditions: Compound concentration 1000.0 nM
[32] = biological target: Cyclin-dependent kinase 2 (Homo sapiens) (UniProt P24941); conditions: Compound concentration 1000.0 nM
[33] = biological target: Serine/threonine-protein kinase 17B (Homo sapiens) (UniProt O94768); conditions: Compound concentration 1000.0 nM
[34] = biological target: SRSF protein kinase 1 (Homo sapiens) (UniProt Q96SB4); conditions: Compound concentration 1000.0 nM
[35] = biological target: Dual specificity tyrosine-phosphorylation-regulated kinase 1A (Homo sapiens) (UniProt Q13627); conditions: Compound concentration 1000.0 nM
[36] = test system: Fibroblast growth factor receptor 3 (Homo sapiens), P22607 [G697C]; conditions: Compound concentration 1000.0 nM
[37] = test system: Phosphatidylinositol 4,5-bisphosphate 3-kinase catalytic subunit alpha isoform (Homo sapiens), P42336 [E545A]; conditions: Compound concentration 1000.0 nM
[38] = biological target: Serine/threonine-protein kinase Nek7 (Homo sapiens) (UniProt Q8TDX7); conditions: Compound concentration 1000.0 nM
[39] = biological target: Tyrosine-protein kinase Blk (Homo sapiens) (UniProt P51451); conditions: Compound concentration 1000.0 nM
[40] = biological target: Mitogen-activated protein kinase kinase kinase kinase 1 (Homo sapiens) (UniProt Q92918); conditions: Compound concentration 1000.0 nM
Mitogen-activated protein kinase kinase kinase kinase 1 (Homo sapiens), sequence (Q92918 whole entry, looked up): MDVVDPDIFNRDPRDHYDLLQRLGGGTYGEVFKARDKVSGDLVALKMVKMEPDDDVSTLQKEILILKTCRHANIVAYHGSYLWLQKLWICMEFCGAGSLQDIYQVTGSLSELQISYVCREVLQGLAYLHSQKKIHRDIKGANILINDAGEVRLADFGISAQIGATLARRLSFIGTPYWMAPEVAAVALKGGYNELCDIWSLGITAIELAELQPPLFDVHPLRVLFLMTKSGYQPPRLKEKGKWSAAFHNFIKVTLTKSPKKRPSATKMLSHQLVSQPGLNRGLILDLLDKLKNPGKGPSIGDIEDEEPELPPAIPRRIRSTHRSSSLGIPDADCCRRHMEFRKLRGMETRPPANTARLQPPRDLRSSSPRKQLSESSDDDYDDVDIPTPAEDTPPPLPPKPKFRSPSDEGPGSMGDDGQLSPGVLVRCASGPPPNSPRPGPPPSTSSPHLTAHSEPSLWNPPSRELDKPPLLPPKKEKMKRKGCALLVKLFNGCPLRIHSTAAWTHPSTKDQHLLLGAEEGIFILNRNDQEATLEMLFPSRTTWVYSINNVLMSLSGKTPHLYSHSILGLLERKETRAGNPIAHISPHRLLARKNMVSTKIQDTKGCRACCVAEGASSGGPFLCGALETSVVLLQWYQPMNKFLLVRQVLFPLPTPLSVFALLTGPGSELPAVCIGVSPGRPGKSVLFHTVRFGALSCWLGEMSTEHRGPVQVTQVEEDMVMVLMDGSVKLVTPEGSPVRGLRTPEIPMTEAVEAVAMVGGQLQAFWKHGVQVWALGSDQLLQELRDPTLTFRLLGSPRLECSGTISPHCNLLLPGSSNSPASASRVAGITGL

[41] = biological target: Wee1-like protein kinase (Homo sapiens) (UniProt P30291); conditions: Compound concentration 1000.0 nM
Wee1-like protein kinase (Homo sapiens), sequence (P30291 whole entry, looked up): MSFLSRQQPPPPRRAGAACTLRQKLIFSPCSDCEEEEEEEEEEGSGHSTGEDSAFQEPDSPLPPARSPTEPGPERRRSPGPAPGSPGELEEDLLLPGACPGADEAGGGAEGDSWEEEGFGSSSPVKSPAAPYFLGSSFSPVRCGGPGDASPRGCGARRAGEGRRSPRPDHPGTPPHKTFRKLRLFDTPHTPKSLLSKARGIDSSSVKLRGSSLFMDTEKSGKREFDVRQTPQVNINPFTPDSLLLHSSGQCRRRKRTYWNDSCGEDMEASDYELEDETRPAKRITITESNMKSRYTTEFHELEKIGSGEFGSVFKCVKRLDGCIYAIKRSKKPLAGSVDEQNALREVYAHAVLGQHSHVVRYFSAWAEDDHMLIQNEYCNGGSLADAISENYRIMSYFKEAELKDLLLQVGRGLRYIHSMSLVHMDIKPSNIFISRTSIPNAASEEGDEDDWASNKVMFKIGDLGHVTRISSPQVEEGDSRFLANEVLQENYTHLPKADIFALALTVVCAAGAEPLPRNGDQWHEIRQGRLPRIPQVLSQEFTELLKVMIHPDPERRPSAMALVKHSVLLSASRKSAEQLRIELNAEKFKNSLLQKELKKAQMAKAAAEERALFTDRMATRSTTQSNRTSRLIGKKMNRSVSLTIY

[42] = test system: Tyrosine-protein kinase ABL1 (Homo sapiens), P00519 [F317L]; conditions: Compound concentration 1000.0 nM
[43] = biological target: Mitogen-activated protein kinase kinase kinase 3 (Homo sapiens) (UniProt Q99759); conditions: Compound concentration 1000.0 nM
[44] = test system: Mast/stem cell growth factor receptor Kit (Homo sapiens), P10721 [L576P]; conditions: Compound concentration 1000.0 nM
[45] = test system: Serine/threonine-protein kinase B-raf (Homo sapiens), P15056 [V600E]; conditions: Compound concentration 1000.0 nM

## FC(F)(F)c1ccc2c(c1)nc(-c1cccnc1)n2C1CC1 [MSD-CYP11B2-Negative-control]
[1]
  residual activity: 100%
[2]
  inhibition: 6.72%
[3]
  residual activity: 100%
[4]
  residual activity: 100%
[5]
  residual activity: 100%
[6]
  residual activity: 100%
[7]
  residual activity: 100%
[8]
  residual activity: 100%
[9]
  residual activity: 100%
[10]
  inhibition: 26.5%
[11]
  residual activity: 100%
[12]
  residual activity: 100%
[13]
  residual activity: 100%
[14]
  residual activity: 100%
[15]
  residual activity: 100%
[16]
  residual activity: 100%
[17]
  residual activity: 100%
[18]
  residual activity: 100%
[19]
  residual activity: 100%
[20]
  residual activity: 100%
[21]
  residual activity: 100%
[22]
  inhibition: -1.88%
[23]
  residual activity: 100%
[24]
  residual activity: 94%
[25]
  residual activity: 87%
[26]
  residual activity: 100%
[27]
  residual activity: 100%
[28]
  residual activity: 100%
[29]
  residual activity: 76%
[30]
  residual activity: 100%
[31]
  residual activity: 100%
[32]
  residual activity: 100%
[33]
  residual activity: 100%
[34]
  residual activity: 80%
[35]
  residual activity: 100%
[36]
  residual activity: 100%
[37]
  residual activity: 90%
[38]
  residual activity: 100%
[39]
  residual activity: 96%
[40]
  residual activity: 93%
[41]
  residual activity: 93%
[42]
  residual activity: 100%
[43]
  residual activity: 100%
[44]
  residual activity: 100%
[45]
  residual activity: 100%

## CC(C)(O)c1cncc(-c2nc3ccc(F)cc3n2C2CC2)c1 [MSD-CYP11B2]
[1]
  residual activity: 100%
[2]
  inhibition: 1.75%
[3]
  residual activity: 92%
[4]
  residual activity: 100%
[5]
  residual activity: 100%
[6]
  residual activity: 100%
[7]
  residual activity: 100%
[8]
  residual activity: 100%
[9]
  residual activity: 100%
[10]
  inhibition: 22.7%
[11]
  residual activity: 100%
[12]
  residual activity: 100%
[13]
  residual activity: 100%
[14]
  residual activity: 100%
[15]
  residual activity: 100%
[16]
  residual activity: 100%
[17]
  residual activity: 100%
[18]
  residual activity: 100%
[19]
  residual activity: 100%
[20]
  residual activity: 100%
[21]
  residual activity: 100%
[22]
  inhibition: 16.7%
[23]
  residual activity: 100%
[24]
  residual activity: 100%
[25]
  residual activity: 90%
[26]
  residual activity: 93%
[27]
  residual activity: 100%
[28]
  residual activity: 100%
[29]
  residual activity: 77%
[30]
  residual activity: 100%
[31]
  residual activity: 100%
[32]
  residual activity: 100%
[33]
  residual activity: 77%
[34]
  residual activity: 100%
[35]
  residual activity: 48%
[36]
  residual activity: 100%
[37]
  residual activity: 90%
[38]
  residual activity: 100%
[39]
  residual activity: 98%
[40]
  residual activity: 99%
[41]
  residual activity: 72%
[42]
  residual activity: 100%
[43]
  residual activity: 99%
[44]
  residual activity: 100%
[45]
  residual activity: 98%
